Source: patent US9074009B2, “Stabilized MAML peptides and uses thereof” (Dana-Farber Cancer Institute, Inc., priority 2006, dated 2015)
Bridge positions count the residues as written; N and C are the ends. Square brackets hold non-standard residues; d marks the D form. Peptide text beside a SMILES is read from it. * marks the point of attachment. Biotin = O=C1N[C@H]2[C@H](CS[C@H]2CCCCC(=O)*)N1; S5 = C=CCCC[C@](C)(N)C(=O)O; βAla = NCCC(=O)O

Key:
ICN and CSL = target: T1, ICN and CSL (Homo sapiens, UniProt P46531+Q06330); test: Immunoprecipitation from T-ALL (KOPTK1) cell lysates; type: binding; conditions: FIG. 19
T1 construct: endogenous in cells; host or cells: KOPTK1 (T-ALL) cell lysates

CSL-responsive reporter = CSL-responsive reporter in transfected MOLT4 cells; type: cell-based; conditions: FIG. 12
Text: MOLT4 cells transfected with a CSL-responsive reporter were used to test whether stapled SAHN11 can interfere with Notch-mediated activation of transcription.

[1] = system: Notch complex mediated transcription; test: Beta-lactamase gene under CSL responsive promoter in T-ALL cells (MOLT4); type: cell-based; conditions: decrease similar to RNAi against Notch or lactamase, FIG. 22
Text: T-ALL cells (MOLT4) harboring a beta-lactamase gene under the control of a CSL responsive promoter was used to study the effect of SAHN1 and SAHN11 on Notch complex mediated transcription.

MOLT4 cells = test: Viability of MOLT4 cells; type: cell-based; conditions: FIG. 14 and 17
TALL1 cells = test: Viability of TALL1 cells; type: cell-based; conditions: FIG. 18
[2] = Circular dichroism spectra, alpha helicity; type: physicochemical; conditions: cross-linked vs not cross-linked, FIG. 5
Text: FIG. 4 is a schematic drawing and detailed structural depiction of a modified polypeptide having the sequence of REM-G1 (SAHN1).

[3] = target: T2, ICN1 bound to immunoprecipitated MAML (Homo sapiens, UniProt P46531+Q06330); test: Competition for ICN1 bound to immunoprecipitated MAML in T-ALL cellular lysates; type: binding; conditions: FIG. 20 and 21
T2 construct: endogenous in cells

Cells = type: cell-based
Procedure: Automated quantitative immunofluorescence was used to determine the intracellular distribution of fluorophore-labeled stapled alpha helices. Cells were incubated with FITC-conjugated peptides SAHN1, SAHN2, or SAHN6; or control. At 16 hours measurements of cellular fluorescence were taken using epifluorescence microscopy. The results of these studies are shown in FIG. 10 in which each circle represents an individual cell and each column represents a treatment condition.
Automated quantitative immunofluorescence was also used to determine the intracellular distribution of fluorophore-labeled stapled alpha helices. Cells were incubated with FITC-conjugated peptides SAHN1, or unstapled SAHN1.

HES1 = HES1 expression in T-ALL cells (MOLT4); type: cell-based; conditions: FIG. 23
Text: (§1) The results of this analysis are show in FIG. 23.

HEY1 = HEY1 expression in T-ALL cells (MOLT4); type: cell-based; conditions: FIG. 23
Text: as §1

ALL-SIL cells = test: Viability of ALL-SIL cells; type: cell-based; conditions: FIG. 15
KOPTK1 cells = type: cell-based
Text: The results of this analysis are show in FIG. 25.

[4] = system: gamma secretase resistant T-ALL cells (MOLT4); test: Apoptotic response in gamma secretase resistant T-ALL cells (MOLT4); type: cell-based; conditions: MOLT4, after 24 or 48 hours, FIG. 24
Text: The results of this analysis are show in FIG. 24.

[5] = system: neoplastic murine lymphocytes derived from transgenic mice harboring human Notch mutations

T1 sequence (P46531 1754-2555 limits assumed): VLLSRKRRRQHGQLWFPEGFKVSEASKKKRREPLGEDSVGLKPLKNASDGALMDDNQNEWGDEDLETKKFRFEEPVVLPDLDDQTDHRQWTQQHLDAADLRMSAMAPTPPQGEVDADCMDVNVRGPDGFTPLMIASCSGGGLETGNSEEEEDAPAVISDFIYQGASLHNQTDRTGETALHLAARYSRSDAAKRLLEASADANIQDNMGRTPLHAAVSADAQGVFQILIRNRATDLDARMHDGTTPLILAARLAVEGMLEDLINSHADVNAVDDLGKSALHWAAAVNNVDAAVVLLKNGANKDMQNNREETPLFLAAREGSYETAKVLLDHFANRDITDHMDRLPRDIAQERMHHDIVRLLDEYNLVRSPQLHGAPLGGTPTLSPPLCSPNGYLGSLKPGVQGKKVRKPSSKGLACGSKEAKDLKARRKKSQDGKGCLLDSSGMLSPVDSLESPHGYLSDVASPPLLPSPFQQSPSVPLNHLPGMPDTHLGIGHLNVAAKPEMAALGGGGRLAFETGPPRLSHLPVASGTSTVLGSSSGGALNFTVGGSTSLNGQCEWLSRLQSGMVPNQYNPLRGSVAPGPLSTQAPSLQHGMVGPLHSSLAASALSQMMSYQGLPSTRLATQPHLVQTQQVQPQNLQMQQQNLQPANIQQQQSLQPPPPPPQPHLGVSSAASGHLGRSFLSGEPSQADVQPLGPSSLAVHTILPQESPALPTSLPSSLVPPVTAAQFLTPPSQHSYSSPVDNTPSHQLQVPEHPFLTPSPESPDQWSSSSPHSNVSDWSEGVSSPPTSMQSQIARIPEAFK
T1 sequence (Q06330 whole entry): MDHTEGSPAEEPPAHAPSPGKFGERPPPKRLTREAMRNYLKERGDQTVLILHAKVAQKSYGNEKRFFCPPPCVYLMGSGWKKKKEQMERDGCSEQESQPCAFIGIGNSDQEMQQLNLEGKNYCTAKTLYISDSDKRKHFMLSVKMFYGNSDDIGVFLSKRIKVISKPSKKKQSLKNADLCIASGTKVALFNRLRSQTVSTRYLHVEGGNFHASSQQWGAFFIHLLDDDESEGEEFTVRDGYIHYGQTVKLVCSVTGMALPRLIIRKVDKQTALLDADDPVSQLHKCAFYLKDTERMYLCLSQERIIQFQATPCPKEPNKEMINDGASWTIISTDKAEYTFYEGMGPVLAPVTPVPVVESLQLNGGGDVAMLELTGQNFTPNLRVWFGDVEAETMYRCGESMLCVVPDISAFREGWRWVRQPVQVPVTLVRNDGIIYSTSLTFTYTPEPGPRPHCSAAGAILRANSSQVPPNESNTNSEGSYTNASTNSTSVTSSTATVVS
T2 sequence (P46531 1754-2555 limits assumed): as the sequence (P46531 1754-2555 limits assumed) above
T2 sequence (Q06330 whole entry): as the sequence (Q06330 whole entry) above

SMILES | pull down of both ICN and CSL (ICN and CSL) | expression of the CSL-responsive reporter (CSL-responsive reporter) | transcription from CSL responsive promoter (beta-lactamase) [1] | viability of MOLT4 cells (MOLT4 cells) | viability of TALL1 cells (TALL1 cells) | alpha helical content (circular dichroism) [2] [%] | competing away ICN1 bound to immunoprecipitated MAML [3] | effect of stapling on intracellular passage (Cells) | intracellular passage (cellular fluorescence) (Cells) | expression of HES1 (HES1) | expression of HEY1 (HEY1) | viability of ALL-SIL cells (ALL-SIL cells) | IC50 (KOPTK1 cells) [µM] | viability of KOPTK1 cells (KOPTK1 cells; FIG. 16) | apoptotic response [4] | cytotoxicity to neoplastic murine lymphocytes [5]
CC[C@H](C)[C@H](NC(=O)[C@H](CCCNC(=N)N)NC(=O)[C@H](CCCNC(=N)N)NC(=O)CCNC(=O)[C@H](CCCCNC(=O)CCCC[C@@H]1SC[C@@H]2NC(=O)N[C@@H]21)NC(C)=O)C(=O)N[C@@H](CCC(=O)O)C(=O)N[C@@H](CC(C)C)C(=O)N[C@@H](CS)C(=O)N[C@@H](CCCNC(=N)N)C(=O)N[C@@H](CCCNC(=N)N)C(=O)N[C@@H](Cc1c[nH]cn1)C(=O)N[C@@H](Cc1c[nH]cn1)C(=O)N[C@@]1(C)CCCC=CCCC[C@@](C)(C(=O)N[C@@H](CCCNC(=N)N)C(=O)N[C@@H](Cc2ccc(O)cc2)C(=O)N[C@@H](CCC(=O)O)C(=O)N[C@@H](C)C(=O)N[C@H](C(N)=O)C(C)C)NC(=O)[C@H](CCC(=O)O)NC(=O)[C@H](CS)NC(=O)[C@H]([C@@H](C)O)NC1=O [SAHN11] (Ac-K(Biotin)[βAla]RRIELCRRHH[S5]TCE[S5]RYEAV-NH2; staple 13-17; N-terminus assumed) | can pull down both ICN and CSL | reduced expression of the CSL-responsive reporter in a dose-dependent manner | decreased transcription | reduced the viability of MOLT4 cells | reduced the viability of TALL1 cells | – | – | – | – | – | – | – | – | – | – | –
CC[C@H](C)[C@H](NC(=O)[C@H](CCCNC(=N)N)NC(=O)[C@H](CCCNC(=N)N)NC(=O)[C@H](CCCNC(=N)N)NC(=O)[C@H](CC(C)C)NC(=O)[C@H](CCCNC(=N)N)NC(=O)[C@H](CCC(=O)O)NC(=O)CCNC(C)=O)C(=O)N[C@@]1(C)CCCC=CCCC[C@@](C)(C(=O)N[C@@H](Cc2c[nH]cn2)C(=O)N[C@@H](Cc2c[nH]cn2)C(=O)N[C@@H](CO)C(=O)N[C@H](C(N)=O)[C@@H](C)O)NC(=O)[C@H](CCCNC(=N)N)NC(=O)[C@H](CS)NC(=O)[C@H](CC(C)C)NC1=O [SAHN1] (Ac-[βAla]ERLRRRI[S5]LCR[S5]HHST-NH2; staple 9-13) | can pull down both ICN and CSL | – | decreased transcription | – | – | 96 | can compete away ICN1 | stapling of the peptide did not, in this instance, appear to impact intracellular passage | exhibited significant intracellular passage | decrease expression of HES1 | decrease expression of HES1 and HEY1 | reduced the viability of ALL-SIL cells | 8 | reduced the viability of KOPTK1 cells | induces an apoptotic response | is cytotoxic to neoplastic murine lymphocytes
